In patent publication US11447503B2, “Pyridine carbamates and their use as GLUN2B receptor modulators” (JANSSEN PHARMACEUTICA NV, priority 2019, dated 2022):

Key:
[1] = molecular target: human GluN1/GluN2B NMDA receptors (Homo sapiens, UniProt Q05586+Q13224); assay: Cell-based calcium flux (FLIPR) assay on cloned human GluN1/GluN2B ion channels expressed in mammalian cells; conditions: standard assay; glutamate ~EC40, 10 μM glycine; stable Tet-On cell line
Method in brief: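 Tet-On-induced stable cells expressing human GluN1/GluN2B, Calcium 5 dye. Compounds preincubated 5 min (agonist check), then glutamate at ~EC40 plus 10 μM glycine added for 5 min; Mg2+ and buffer composition differ between standard and HTS formats. FLIPR Tetra fluorescence normalised to control wells; (+)MK-801 as antagonist control.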

[2] = Liver microsomal stability assay (extraction ratio); type: in vitro ADME; conditions: test compound 1 μM; 0.5 mg/mL liver microsomes, NADPH, 37° C.; species not stated (method: mouse, rat, and human)
Method: 5.4. Liver Microsomal Stability Assay (Extraction Ratio)
Microsomal stability studies (see, Chrovian et al, “H-Pyrrolo[3,2-b]pyridine GluN2B-Selective Negative Allosteric Modulators”. ACS Med Chem Lett. 2019 Jan. 10; 10(3):261-266) were conducted on a Biomek® FX Robotic Liquid Handling Workstation (Beckman Coulter, Brea, Calif.), which consists of a 96-channel pipette head, a 12-position workstation deck, and a plate incubator. Test compounds (1 μM) were spiked in a reaction mix consisting of 100 mM potassium phosphate buffer (pH 7.4), 3 mM MgCl2, and 0.5 mg/mL liver microsomes from mouse, rat, and human (BD Gentest). The reaction was brought to 37° C. and initiated by adding NADPH to a final concentration of 1 mM. After mixing on the platedeck, 50 μL aliquots were excised from the reaction plate at 0, 5, 10, 20, 40, and 60 min and quenched with four volumes of acetonitrile spiked with […] of the internal standard phenytoin. Quenched plates were centrifuged at 5700 rpm for 10 min at 4° C., and supernatant was diluted 1:3 in water before LC/MS/MS analysis. The compound half-lives were derived from plots of the In of percent remaining compound over time to determine the intrinsic clearance. The predicted hepatic clearance was derived from the intrinsic clearance value using equations from the well-stirred model (Current Drug Metabolism, 2008, 9, 940-951), where no correction was made plasma protein binding and the blood to plasma concentration ratio was assumed to be one. The extraction ratio (ER) was calculated by dividing the predicted hepatic clearance by species blood flow (Q), where Q is 90, 55, and 21.7 mL/min/kg for mouse, rat and human, respectively.

Sequence of human GluN1/GluN2B NMDA receptors (Q13224 27-1484, other chains not shown): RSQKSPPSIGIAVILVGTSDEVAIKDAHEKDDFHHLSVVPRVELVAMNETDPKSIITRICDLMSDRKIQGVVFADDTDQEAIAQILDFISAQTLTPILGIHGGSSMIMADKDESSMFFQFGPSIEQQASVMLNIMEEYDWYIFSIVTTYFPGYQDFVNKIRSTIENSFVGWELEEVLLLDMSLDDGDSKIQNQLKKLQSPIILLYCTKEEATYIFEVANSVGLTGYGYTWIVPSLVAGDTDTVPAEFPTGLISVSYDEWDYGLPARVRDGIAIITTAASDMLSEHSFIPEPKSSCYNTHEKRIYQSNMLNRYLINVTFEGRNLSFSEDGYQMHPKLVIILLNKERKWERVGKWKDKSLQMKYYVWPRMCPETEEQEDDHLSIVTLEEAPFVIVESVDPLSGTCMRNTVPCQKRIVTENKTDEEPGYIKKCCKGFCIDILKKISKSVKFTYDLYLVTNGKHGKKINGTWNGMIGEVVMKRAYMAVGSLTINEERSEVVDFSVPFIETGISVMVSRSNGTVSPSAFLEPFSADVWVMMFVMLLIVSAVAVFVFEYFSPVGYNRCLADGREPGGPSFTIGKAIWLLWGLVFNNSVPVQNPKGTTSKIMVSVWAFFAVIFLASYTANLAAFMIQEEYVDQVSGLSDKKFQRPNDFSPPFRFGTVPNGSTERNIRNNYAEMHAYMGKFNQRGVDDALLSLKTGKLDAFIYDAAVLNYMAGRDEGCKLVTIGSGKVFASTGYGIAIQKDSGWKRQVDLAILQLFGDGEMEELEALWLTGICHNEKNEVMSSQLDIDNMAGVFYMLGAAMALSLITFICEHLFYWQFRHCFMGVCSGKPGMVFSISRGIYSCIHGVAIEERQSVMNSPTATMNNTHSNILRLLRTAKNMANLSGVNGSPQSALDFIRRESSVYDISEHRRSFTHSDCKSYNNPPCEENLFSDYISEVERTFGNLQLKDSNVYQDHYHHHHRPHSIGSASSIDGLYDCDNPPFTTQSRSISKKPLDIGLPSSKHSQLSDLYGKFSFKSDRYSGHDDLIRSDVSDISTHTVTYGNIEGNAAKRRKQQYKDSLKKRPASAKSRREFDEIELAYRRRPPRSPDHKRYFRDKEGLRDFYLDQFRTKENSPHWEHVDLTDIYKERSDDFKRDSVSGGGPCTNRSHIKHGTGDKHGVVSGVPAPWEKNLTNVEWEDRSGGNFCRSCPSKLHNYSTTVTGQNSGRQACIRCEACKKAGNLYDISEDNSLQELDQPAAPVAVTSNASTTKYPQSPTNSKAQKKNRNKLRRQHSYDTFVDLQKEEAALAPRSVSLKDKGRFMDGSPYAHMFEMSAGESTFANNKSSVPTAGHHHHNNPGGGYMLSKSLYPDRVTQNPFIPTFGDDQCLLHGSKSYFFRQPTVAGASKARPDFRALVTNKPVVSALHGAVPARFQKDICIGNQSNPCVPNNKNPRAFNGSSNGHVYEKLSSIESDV

Compound | IC50 [1] [nM] | Extraction Ratio @ 1 μM [2]
CC(c1cncc(-c2ccc(F)c(C(F)F)c2)c1)N1CCOC1=O (racemic) [Example 60, (R/S)-3-[1-[5-[3-(difluoromethyl)-4-fluoro-phenyl]-3-pyridyl]ethyl]oxazolidin-2-one] | 785 | 0.42
O=C1OCCCN1Cc1cncc(-c2ccc(F)c(OC(F)F)c2)c1 [Example 1, 3-[[5-[3-(Difluoromethoxy)-4-fluoro-phenyl]-3-pyridyl]methyl]-1,3-oxazinan-2-one] | 10 | 0.49
O=C1OCCN1Cc1cncc(-c2ccc(F)c(C(F)F)c2)c1 [Example 22, 3-[[5-[3-(Difluoromethyl)-4-fluoro-phenyl]-3-pyridyl]methyl]oxazolidin-2-one] | 11 | 0.63
O=C1OCCCN1Cc1cncc(-c2ccc(Cl)c(OC(F)F)c2)c1 [Example 53, 3-[[5-[4-chloro-3-(difluoromethoxy)phenyl]-3-pyridyl]methyl]-1,3-oxazinan-2-one] | – | 0.61
Cc1ncc(-c2ccc(F)c(C(F)F)c2)cc1CN1CCOC1=O [Example 90, 3-[[5-[3-(Difluoromethyl)-4-fluoro-phenyl]-2-methyl-3-pyridyl]methyl] oxazolidin-2-one] | 13 | 0.60
O=C1OCCN1Cc1cc(-c2ccc(Cl)c(OC(F)F)c2)cnc1C(F)F [Example 130, 3-[[5-[4-Chloro-3-(difluoromethoxy)phenyl]-2-(difluoromethyl)-3-pyridyl]methyl]oxazolidin-2-one] | 30 | –
O=C1OCCN1Cc1cc(-c2ccc(F)c(C(F)F)c2)cnc1OC(F)F [Example 131, 3-[[2-(Difluoromethoxy)-5-[3-(difluoromethyl)-4-fluoro-phenyl]-3-pyridyl]methyl]oxazolidin-2-one] | 153 | –
CC(F)(F)c1ncc(-c2ccc(F)c(C(F)F)c2)cc1CN1CCOC1=O [Example 135, 3-[[2-(1,1-Difluoroethyl)-5-[3-(difluoromethyl)-4-fluoro-phenyl]-3-pyridyl]methyl]oxazolidin-2-one] | 47 | –
CC(F)(F)c1ncc(-c2ccc(F)c(OC(F)F)c2)cc1CN1CC2(CCC2)OC1=O [Example 147, 6-[[2-(1,1-Difluoroethyl)-5-[3-(difluoromethoxy)-4-fluoro-phenyl]-3-pyridyl]methyl]-8-oxa-6-azaspiro[3.4]octan-7-one] | 392 | –
C[C@@H]1CN(Cc2cc(-c3ccc(F)c(OC(F)F)c3)cnc2C(C)(F)F)C(=O)O1 [Example 149, (5R)-3-[[2-(1,1-Difluoroethyl)-5-[3-(difluoromethoxy)-4-fluoro-phenyl]-3-pyridyl]methyl]-5-methyl-oxazolidin-2-one] | 127 | –
O=C1OCCN1Cc1cc(-c2ccc(F)c(OC(F)F)c2)cnc1F [Example 150, 3-((5-(3-(Difluoromethoxy)-4-fluorophenyl)-2-fluoropyridin-3-yl)methyl)oxazolidin-2-one] | 11 | –
O=C1OCCCN1Cc1cc(-c2ccc(F)c(OC(F)F)c2)cnc1F [Example 151, 3-((5-(3-(Difluoromethoxy)-4-fluorophenyl)-2-fluoropyridin-3-yl)methyl)-1,3-oxazinan-2-one] | 11 | –

Second part, the compound after the results:

IC50 [1] [nM] | Extraction Ratio @ 1 μM [2] | Compound
14 | 0.42 | C[C@H]1CN(Cc2cncc(-c3ccc(F)c(C(F)F)c3)c2)C(=O)O1 (single isomer, unassigned) [Example 27, (S*)-3-[[5-[3-(Difluoromethyl)-4-fluoro-phenyl]-3-pyridyl]methyl]-5-methyl-oxazolidin-2-one]
9 | <0.298 | O=C1OCCCN1Cc1cncc(-c2ccc(F)c(C(F)F)c2)c1 [Example 38, 3-[[5-[3-(Difluoromethyl)-4-fluoro-phenyl]-3-pyridyl]methyl]-1,3-oxazinan-2-one]
13 | 0.61 | [2H]C([2H])(c1cncc(-c2ccc(F)c(C(F)F)c2)c1)N1CCOC1=O [Example 54, 3-[Dideuterio-[5-[3-(difluoromethyl)-4-fluoro-phenyl]-3-pyridyl]methyl]oxazolidin-2-one]
176 | – | C[C@@H]1COC(=O)N1Cc1cc(-c2ccc(F)c(C(F)F)c2)cnc1OC(F)F [Example 132, (4R)-3-[[2-(Difluoromethoxy)-5-[3-(difluoromethyl)-4-fluoro-phenyl]-3-pyridyl]methyl]-4-methyl-oxazolidin-2-one]
76 | – | O=C1OCCN1Cc1cc(-c2ccc(F)c(OC(F)F)c2)cnc1OC(F)F [Example 133, 3-[[2-(Difluoromethoxy)-5-[3-(difluoromethoxy)-4-fluoro-phenyl]-3-pyridyl]methyl]oxazolidin-2-one]
61 | – | C[C@@H]1COC(=O)N1Cc1cc(-c2ccc(F)c(OC(F)F)c2)cnc1OC(F)F [Example 134, (4R)-3-[[-(Difluoromethoxy)-5-[3-(difluoromethoxy)-4-fluoro-phenyl]-3-pyridyl]methyl]-4-methyl-oxazolidin-2-one]
99 | – | CC(F)(F)c1ncc(-c2ccc(F)c(C(F)F)c2)cc1CN1CCCOC1=O [Example 136, 3-[[2-(1,1-Difluoroethyl)-5-[3-(difluoromethyl)-4-fluoro-phenyl]-3-pyridyl]methyl]-1,3-oxazinan-2-one]
76 | – | CC(F)(F)c1ncc(-c2ccc(F)c(OC(F)F)c2)cc1CN1CCCOC1=O [Example 137, 3-[[2-(1,1-Difluoroethyl)-5-[3-(difluoromethoxy)-4-fluoro-phenyl]-3-pyridyl]methyl]-1,3-oxazinan-2-one]
549 | – | CC(F)(F)c1ncc(-c2ccc(F)c(C(F)F)c2)cc1CN1CC2(CCC2)OC1=O [Example 138, 6-[[2-(1,1-Difluoroethyl)-5-[3-(difluoromethyl)-4-fluoro-phenyl]-3-pyridyl]methyl]-8-oxa-6-azaspiro[3.4]octan-7-one]
134 | – | C[C@@H]1CN(Cc2cc(-c3ccc(F)c(C(F)F)c3)cnc2C(C)(F)F)C(=O)O1 [Example 139, (5R)-3-[[2-(1,1-Difluoroethyl)-5-[3-(difluoromethyl)-4-fluoro-phenyl]-3-pyridyl]methyl]-5-methyl-oxazolidin-2-one]
111 | – | C[C@H]1CN(Cc2cc(-c3ccc(F)c(C(F)F)c3)cnc2C(C)(F)F)C(=O)O1 [Example 140, (5S)-3-[[2-(1,1-Difluoroethyl)-5-[3-(difluoromethyl)-4-fluoro-phenyl]-3-pyridyl]methyl]-5-methyl-oxazolidin-2-one]
245 | – | CC(F)(F)c1ncc(-c2ccc(F)c(C(F)F)c2)cc1CN1CC2(CC2)OC1=O [Example 141, 5-[[2-(1,1-Difluoroethyl)-5-[3-(difluoromethyl)-4-fluoro-phenyl]-3-pyridyl]methyl]-7-oxa-5-azaspiro[2.4]heptan-6-one]
2000 | – | C[C@H]1COC(=O)N1Cc1cc(-c2ccc(F)c(C(F)F)c2)cnc1C(C)(F)F [Example 142, (4S)-3-[[2-(1,1-Difluoroethyl)-5-[3-(difluoromethyl)-4-fluoro-phenyl]-3-pyridyl]methyl]-4-methyl-oxazolidin-2-one]
180 | – | C[C@@H]1COC(=O)N1Cc1cc(-c2ccc(F)c(C(F)F)c2)cnc1C(C)(F)F [Example 143, (4R)-3-[[2-(1,1-Difluoroethyl)-5-[3-(difluoromethyl)-4-fluoro-phenyl]-3-pyridyl]methyl]-4-methyl-oxazolidin-2-one]
157 | – | C[C@@H]1COC(=O)N1Cc1cc(-c2ccc(F)c(OC(F)F)c2)cnc1C(C)(F)F [Example 144, (4R)-3-[[2-(1,1-Difluoroethyl)-5-[3-(difluoromethoxy)-4-fluoro-phenyl]-3-pyridyl]methyl]-4-methyl-oxazolidin-2-one]
492 | – | C[C@H]1COC(=O)N1Cc1cc(-c2ccc(F)c(OC(F)F)c2)cnc1C(C)(F)F [Example 145, (4S)-3-[[2-(1,1-Difluoroethyl)-5-[3-(difluoromethoxy)-4-fluoro-phenyl]-3-pyridyl]methyl]-4-methyl-oxazolidin-2-one]
212 | – | CC(F)(F)c1ncc(-c2ccc(F)c(OC(F)F)c2)cc1CN1CC2(CC2)OC1=O [Example 146, 5-[[2-(1,1-Difluoroethyl)-5-[3-(difluoromethoxy)-4-fluoro-phenyl]-3-pyridyl]methyl]-7-oxa-5-azaspiro[2.4]heptan-6-one]
147 | – | C[C@H]1CN(Cc2cc(-c3ccc(F)c(OC(F)F)c3)cnc2C(C)(F)F)C(=O)O1 [Example 148, (5S)-3-[[2-(1,1-Difluoroethyl)-5-[3-(difluoromethoxy)-4-fluoro-phenyl]-3-pyridyl]methyl]-5-methyl-oxazolidin-2-one]
